Legend:
[1] = Visual acuity in limbal stem cell insufficiency (LSCI) patients treated with topical steroid drops; type: in vivo, human; details: OU
Experimental: (§1) In these experiments, the clinical charts and images of three patients diagnosed with LSCI were retrospectively reviewed. […] The patients were followed monthly until resolution. The patients were treated with topical steroid drops based on in vivo confocal microscopy findings that indicate the presence of inflammation. […] The images were quantified for dendritiform immune cell density (DC) and total counts of nerves and branches with respective density with ImageJ/Neuron J software.

[2] = tested on: dendritic cells in the central cornea and superior limbus; assay: In vivo confocal microscopy of dendritiform immune cell density in LSCI patients; set-up: species or system human; details: for average density of dendritic cells in the superior limbus: after treatment, pooled LSCI subjects (loteprednol etabonate or rimexolone); for average dendritic cell density in the cornea: following three months of treatment, pooled LSCI subjects (loteprednol etabonate 4 eyes, rimexolone 2 eyes), 577.4±323.8 at presentation, p=0.001
Experimental: as §1

Compound | visual acuity after treatment ([1]; LSCI Patient 1, 1% QID initially, then taper for 5 months, 20/25 OD and 20/40 OS at presentation) | average density of dendritic cells in the superior limbus [2] [cells/mm^2] | average dendritic cell density in the cornea [2] [cells/mm^2] | visual acuity after treatment ([1]; LSCI Patient 2, 0.5% QID initially, then taper for 11 months, 20/20 OD and 20/60 OS at presentation) | visual acuity after treatment ([1]; LSCI Patient 3, 0.5% QID initially, then taper for 4 months, 20/30 OD and 20/20 OS at presentation)
CCC(=O)[C@@]1(C)[C@H](C)C[C@H]2[C@@H]3CCC4=CC(=O)C=C[C@]4(C)[C@H]3[C@@H](O)C[C@@]21C [rimexolone] | 20/20 | 238.2±158.4 | 234.6±233.7 |  | 
CCOC(=O)O[C@]1(C(=O)OCCl)CC[C@H]2[C@@H]3CCC4=CC(=O)C=C[C@]4(C)[C@H]3[C@@H](O)C[C@@]21C [loteprednol etabonate] |  | 238.2±158.4 | 234.6±233.7 | 20/20 | 20/20
